Laboratory results as given in patent US20210323950A1, “HERBICIDALLY ACTIVE BICYCLIC BENZOYLPYRAZOLES” (Bayer Aktiengesellschaft, priority 2018, published 2021).

How the values were obtained:
Type in all cases: in vivo
[1] = tested on: Echinochloa crus-galli (ECHCG); experiment: Pre-emergence herbicidal action against ECHCG; details: scored visually after about 3 weeks vs untreated controls
[2] = tested on: Abutilon theophrasti (ABUTH); experiment: Pre-emergence herbicidal action against ABUTH; details: scored visually after about 3 weeks vs untreated controls
Outline: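 Sown pots had WP or EC formulations sprayed onto the covering soil as aqueous suspension/emulsion with 0.5% additive, then were kept in a greenhouse. After about 3 weeks, damage was scored visually as % versus untreated controls (100% = plants dead, 0% = like controls).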

[3] = tested on: Viola tricolor (VIOTR); experiment: Pre-emergence herbicidal action against VIOTR; details: scored visually after about 3 weeks vs untreated controls
Outline: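 Seeds were sown in pots and covered with soil. After ~3 weeks in the greenhouse, effect was scored visually versus untreated controls (100% = plants dead, 0% = like control).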

[4] = tested on: Veronica persica (VERPE); experiment: Pre-emergence herbicidal action against VERPE; details: scored visually after about 3 weeks vs untreated controls
Outline: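 Weed seeds were sown in pots and covered with soil. Pots were kept in the greenhouse and damage was scored visually after about 3 weeks as percent versus untreated controls (100% = plants died).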

[5] = tested on: Abutilon theophrasti (ABUTH); experiment: Post-emergence herbicidal action against ABUTH; details: 20 g/ha, post-emergence at one-leaf stage, rated visually after about 3 weeks vs untreated controls
Procedure: (§1) ABUTH: Abutilon theophrasti 2. Post-Emergence Herbicidal Action and Crop Plant Compatibility Seeds of monocotyledonous and dicotyledonous weeds and crop plants are placed in sandy loam in plastic or organic planting pots, covered with soil and cultivated in a greenhouse under controlled growth conditions. 2 to 3 weeks after sowing, the test plants are treated at the one-leaf stage. The compounds of the invention, formulated in the form of wettable powders (WP) or as emulsion concentrates (EC), are then sprayed onto the green parts of the plants as aqueous suspension or emulsion with addition of 0.5% additive at a water application rate of […] (converted). After the test plants had been kept in the greenhouse under optimum growth conditions for about 3 weeks, the activity of the preparations is rated visually in comparison to untreated controls. The tables below show the herbicidal activity of numerous compounds according to the invention against important harmful plants. For example, 100% activity=the plants have died, 0% activity=like control plants.

[6] = tested on: Setaria viridis (SETVI); experiment: Pre-emergence herbicidal action against SETVI; details: scored visually after about 3 weeks vs untreated controls
[7] = tested on: Veronica persica (VERPE); experiment: Post-emergence herbicidal action against VERPE; details: 20 g/ha, post-emergence at one-leaf stage, rated visually after about 3 weeks vs untreated controls
Procedure: as §1, with “VERPE: Veronica persica” for “ABUTH: Abutilon theophrasti”

SMILES	Pre-emergence action against ECHCG ([1]; 80 g/ha) [%]	Pre-emergence action against ABUTH ([2]; 80 g/ha) [%]	Pre-emergence action against VIOTR ([3]; 80 g/ha) [%]	Pre-emergence action against VERPE ([4]; 80 g/ha) [%]	Post-emergence action against ABUTH [5] [%]	Pre-emergence action against SETVI ([6]; 80 g/ha) [%]	Pre-emergence action against ECHCG ([1]; 320 g/ha) [%]	Pre-emergence action against SETVI ([6]; 320 g/ha) [%]	Pre-emergence action against ABUTH ([2]; 320 g/ha) [%]	Pre-emergence action against VIOTR ([3]; 320 g/ha) [%]	Pre-emergence action against VERPE ([4]; 320 g/ha) [%]	Post-emergence action against VERPE [7] [%]
Cc1nn(C)c(O)c1C(=O)c1ccc(C(F)(F)F)c2c1OCCS2(=O)=O [Example 1-55]	100	100	90	90	90	–	–	–	–	–	–	–
Cc1nn(C)c(O)c1C(=O)c1ccc(C(F)(F)F)c2c1OCC[S+]2[O-] (stereo not drawn) [Example 1-40]	80	100	–	–	80	100	–	–	–	–	–	–
Cn1ncc(C(=O)c2ccc(C(F)(F)F)c3c2OCCS3)c1O [Example 1-15]	80	–	100	90	–	100	–	–	–	–	–	–
Cn1ncc(C(=O)c2ccc(C(F)(F)C(F)(F)F)c3c2OCS3)c1O [Example 1-128]	90	90	100	–	–	100	–	–	–	–	–	–
CCn1ncc(C(=O)c2ccc(C(F)(F)F)c3c2OCC[S+]3[O-])c1O (stereo not drawn) [Example 1-35]	100	100	100	–	90	100	–	–	–	–	–	–
Cn1ncc(C(=O)c2ccc(C(F)(F)F)c3c2OC[S+]3[O-])c1O (stereo not drawn) [Example 1-28]	–	–	–	–	90	–	100	100	100	100	100	90
Cn1nc(C2CC2)c(C(=O)c2ccc(C(F)(F)F)c3c2OCC[S+]3[O-])c1O (stereo not drawn) [Example 1-116]	80	80	100	80	90	100	–	–	–	–	–	–
Cn1ncc(C(=O)c2ccc(C(F)(F)F)c3c2OCS3)c1O [Example 1-13]	–	–	–	–	90	–	100	100	100	100	100	–
Cn1ncc(C(=O)c2ccc(C(F)(F)F)c3c2OCC[S+]3[O-])c1O (stereo not drawn) [Example 1-30]	100	100	100	–	80	100	–	–	–	–	–	–
Cn1ncc(C(=O)c2ccc(C(F)(F)F)c3c2OCCS3(=O)=O)c1O [Example 1-45]	100	100	100	100	–	100	–	–	–	–	–	90
CCn1ncc(C(=O)c2ccc(C(F)(F)F)c3c2OCCS3(=O)=O)c1O [Example 1-50]	100	100	–	90	90	100	–	–	–	–	–	–
